The text below walks through data of PubChem BioAssay (NCI).

Some test systems named below: CCRF-CEM leukemia; HL-60(TB) leukemia; HS 578T breast; HT29 colon; OVCAR-8 ovarian; PC-3 prostate; SF-295 CNS; SF-539 CNS; SN12C renal; SNB-75 CNS.
Holding throughout (assay): NCI tumour cell line growth inhibition, 48 h

Each structure is given as a SMILES string.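 Each compound was tested at five concentrations against cells in 96-well plates for 48 hours. GI50 = concentration required for 50% inhibition of growth. TGI: concentration producing complete growth inhibition.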

In the case of `CN1CCN(Cc2ccc3c(NNC(=O)c4ccccc4)nc4cc(F)ccc4n23)CC1`, the GI50 is 225 nM in the experiment on CCRF-CEM leukemia; 0.335 µM in the experiment on HL-60(TB) leukemia; 5.73 µM in the experiment on HS 578T breast; 0.587 µM in the experiment on HT29 colon; 0.372 µM with OVCAR-8 ovarian; 0.466 µM in the experiment with PC-3 prostate. In addition, the GI50 was 0.27 µM with SF-295 CNS, 491 nM with SF-539 CNS, 0.551 µM in the experiment on SN12C renal and 436 nM with SNB-75 CNS. For the same compound, the TGI in the experiment on CCRF-CEM leukemia is > 100 µM; with HL-60(TB) leukemia, 1.91 µM; in the experiment with HS 578T breast, > 100 µM; with HT29 colon, > 49 µM; in the experiment on OVCAR-8 ovarian, 46.4 µM; with PC-3 prostate it was > 66.7 µM. The TGI in the experiment on SF-295 CNS is 4.89 µM; in the experiment with SF-539 CNS, 8.22 µM; with SN12C renal, > 100 µM; with SNB-75 CNS, > 25.8 µM.
Turning to `COc1ccccc1NS(=O)(=O)c1ccc2oc(SC(C)C)nc2c1`, the GI50 with CCRF-CEM leukemia was 11900 nM; in the experiment on HL-60(TB) leukemia, 6.09 µM; with HS 578T breast, 33.6 µM; in the experiment on HT29 colon, 22.2 µM; with OVCAR-8 ovarian, 25.6 µM; in the experiment on PC-3 prostate, 12.4 µM. The GI50 with SF-295 CNS was 11.1 µM; with SF-539 CNS, 18600 nM; in the experiment on SN12C renal it was 15.5 µM; with SNB-75 CNS, 27400 nM. Also, the TGI with CCRF-CEM leukemia was 56.1 µM; in the experiment on HL-60(TB) leukemia, 29.1 µM; in the experiment with HS 578T breast, > 100 µM; with HT29 colon it was 64.1 µM; with OVCAR-8 ovarian, > 100 µM; in the experiment on PC-3 prostate, 45.7 µM. Moreover, the TGI with SF-295 CNS came to 37 µM; with SF-539 CNS it was 56.1 µM; in the experiment with SN12C renal it was 34.5 µM; with SNB-75 CNS, 84.3 µM.
As to `O=C1c2ccccc2C(=O)c2sc(Nc3ccccc3Cl)nc21`, the TGI in the experiment on CCRF-CEM leukemia came to 9.56 µM; with HL-60(TB) leukemia, 4.18 µM; in the experiment with HS 578T breast it was 80.4 µM; in the experiment with HT29 colon, 45.4 µM; in the experiment on OVCAR-8 ovarian it was 20.3 µM; with PC-3 prostate it was 25.9 µM. Also, the TGI in the experiment on SF-295 CNS amounted to 30.1 µM; with SF-539 CNS, 31.4 µM; with SN12C renal, 21.1 µM; with SNB-75 CNS, 27.1 µM.
`O=S(=O)(Nc1ccc(F)c(Cl)c1)c1ccc(-c2cnc(C3CC3)o2)cc1`: the GI50 in the experiment on CCRF-CEM leukemia was 318 nM; with HL-60(TB) leukemia, 0.213 µM; in the experiment on HS 578T breast, 0.28 µM; with HT29 colon, 0.259 µM; in the experiment on OVCAR-8 ovarian, 0.588 µM; in the experiment on PC-3 prostate, 0.322 µM. Besides, the GI50 was 0.199 µM in the experiment on SF-295 CNS, 305 nM in the experiment with SF-539 CNS, 0.663 µM in the experiment with SN12C renal and 137 nM in the experiment with SNB-75 CNS. The TGI in the experiment with CCRF-CEM leukemia turned out to be 28.9 µM; in the experiment on HL-60(TB) leukemia, 2.16 µM; in the experiment with HS 578T breast, 4.53 µM; with HT29 colon it was 2.56 µM; in the experiment on OVCAR-8 ovarian, 14.6 µM; in the experiment on PC-3 prostate it was 12.3 µM. Besides, the TGI in the experiment on SF-295 CNS came to 1.49 µM; with SF-539 CNS it was 1.8 µM; in the experiment on SN12C renal it was 10.8 µM; with SNB-75 CNS it was 0.547 µM.
Consider `Nc1nc(N)c2cc(Sc3cccc(C(F)(F)F)c3)ccc2n1`, for which the TGI in the experiment with CCRF-CEM leukemia was 15.3 µM; in the experiment with HL-60(TB) leukemia it was 3.24 µM; in the experiment with HS 578T breast, 10.2 µM; with HT29 colon it was 8.16 µM; with OVCAR-8 ovarian, 4.55 µM; in the experiment on PC-3 prostate, 14.9 µM. The TGI came out at 8.97 µM in the experiment with SF-295 CNS, 13.9 µM in the experiment on SF-539 CNS, 15.7 µM in the experiment on SN12C renal and 15.9 µM in the experiment with SNB-75 CNS. Further, the results for the GI50 in the experiment with OVCAR-8 ovarian and in the experiment with PC-3 prostate were 0.713 µM and 0.698 µM, respectively.
Consider `N#CN1CC[C@H](C(=O)Nc2cc3cc(C(N)=O)ccc3cn2)C1`, for which the GI50 was 29 nM in the experiment on CCRF-CEM leukemia; 0.109 µM with HL-60(TB) leukemia; 0.0534 µM in the experiment on HS 578T breast; 0.144 µM in the experiment on HT29 colon; 0.0993 µM with OVCAR-8 ovarian; 0.257 µM in the experiment with PC-3 prostate. Further, the GI50 with SF-295 CNS is 0.392 µM; in the experiment with SF-539 CNS it was 58.9 nM; in the experiment with SN12C renal, 0.117 µM; in the experiment with SNB-75 CNS it was 64.9 nM. Also, the TGI in the experiment on CCRF-CEM leukemia is > 100 µM; in the experiment with HL-60(TB) leukemia it was 0.443 µM; in the experiment with HS 578T breast it was 3.52 µM; in the experiment on HT29 colon it was 1.16 µM; with OVCAR-8 ovarian it was > 46.3 µM; with PC-3 prostate, 20.4 µM. In addition, the TGI in the experiment with SF-295 CNS is > 47.7 µM; in the experiment with SF-539 CNS, 0.319 µM; in the experiment with SN12C renal, 46.7 µM; in the experiment on SNB-75 CNS, 0.512 µM.
`NC(=S)N=Nc1c(O)c2ccccc2c2ccccc12`: the GI50 was 28600 nM in the experiment with CCRF-CEM leukemia; 20 µM with HL-60(TB) leukemia; 2.17 µM with HS 578T breast; 19.3 µM with HT29 colon; 4.32 µM in the experiment on OVCAR-8 ovarian; 9.05 µM in the experiment with PC-3 prostate. Also, the GI50 with SF-295 CNS was 3.01 µM; in the experiment with SF-539 CNS, 2480 nM; in the experiment on SN12C renal, 1.73 µM; in the experiment on SNB-75 CNS, 1340 nM. The TGI in the experiment on CCRF-CEM leukemia was > 71.6 µM; in the experiment with HL-60(TB) leukemia it was 46 µM; in the experiment with HS 578T breast it was 7.96 µM; in the experiment with HT29 colon, > 100 µM; with OVCAR-8 ovarian it was 22.7 µM; with PC-3 prostate, 66.6 µM. In addition, the TGI in the experiment on SF-295 CNS was 10.2 µM; in the experiment on SF-539 CNS it was 9.16 µM; in the experiment with SN12C renal, 3.47 µM; in the experiment with SNB-75 CNS, 3.24 µM.
For `C#COc1cccc(Nc2ncnc3cc(NC(=O)[C@H](C)Cl)ccc23)c1`, the GI50 was 2410 nM with CCRF-CEM leukemia; 1.1 µM with HL-60(TB) leukemia; 2.51 µM in the experiment on HS 578T breast; 2.21 µM in the experiment on HT29 colon; 4.5 µM in the experiment with OVCAR-8 ovarian; 3.23 µM in the experiment on PC-3 prostate. The GI50 in the experiment with SF-295 CNS was 2.28 µM; in the experiment with SF-539 CNS, 2850 nM; in the experiment on SN12C renal, 3.69 µM; in the experiment on SNB-75 CNS, 2600 nM. In addition, the TGI is > 62.5 µM in the experiment on CCRF-CEM leukemia; 3.19 µM with HL-60(TB) leukemia; > 62.5 µM in the experiment with HS 578T breast; > 62.5 µM with HT29 colon; > 62.5 µM in the experiment on OVCAR-8 ovarian; > 62.5 µM in the experiment with PC-3 prostate. Besides, the TGI in the experiment on SF-295 CNS is 61.1 µM; in the experiment on SF-539 CNS it was > 62.5 µM; in the experiment on SN12C renal, > 62.5 µM; in the experiment with SNB-75 CNS, > 62.5 µM.
As to `COc1ccc(C(CC(=O)c2ccccc2)C(C(=O)c2ccccc2)C(c2ccc(OC)cc2)C2C(=O)NC(=S)NC2=O)cc1` (configuration not stated), the GI50 with CCRF-CEM leukemia is 11800 nM; with HL-60(TB) leukemia, 20.1 µM; in the experiment on HS 578T breast it was 10.5 µM; in the experiment with HT29 colon it was 21.3 µM; with OVCAR-8 ovarian it was 13.5 µM; in the experiment with PC-3 prostate it was 5.61 µM. In addition, the GI50 is 11.4 µM in the experiment on SF-295 CNS, 10100 nM with SF-539 CNS, 12.8 µM in the experiment with SN12C renal and 31200 nM in the experiment with SNB-75 CNS. The TGI was > 100 µM in the experiment with CCRF-CEM leukemia; > 100 µM in the experiment on HL-60(TB) leukemia; 47.9 µM in the experiment with HS 578T breast; > 100 µM in the experiment with HT29 colon; 45.6 µM with OVCAR-8 ovarian; > 100 µM in the experiment on PC-3 prostate. For the same compound, the TGI in the experiment with SF-295 CNS is 42.7 µM; in the experiment on SF-539 CNS it was 36.1 µM; in the experiment on SN12C renal, 45.2 µM; in the experiment with SNB-75 CNS it was > 100 µM.
With `CC1=C[C@H]2C[C@H](C)[C@H]3CC[C@H](C)[C@]4(C1)C(=O)C(O)=C(C)C(=O)[C@@]324`, the GI50 with CCRF-CEM leukemia is 11700 nM; in the experiment with HL-60(TB) leukemia it was 15.7 µM; in the experiment on HS 578T breast, 24.7 µM; with HT29 colon, 27.8 µM; in the experiment with OVCAR-8 ovarian, 40.4 µM; in the experiment on PC-3 prostate, 18.4 µM. The GI50 in the experiment on SF-295 CNS was > 100 µM; in the experiment on SF-539 CNS, 52600 nM; in the experiment with SN12C renal, 28.7 µM; in the experiment on SNB-75 CNS, 46700 nM. In addition, the TGI was 31.5 µM with CCRF-CEM leukemia; 33.1 µM with HL-60(TB) leukemia; 67.5 µM with HS 578T breast; > 100 µM in the experiment on HT29 colon; > 100 µM with OVCAR-8 ovarian; 56 µM in the experiment on PC-3 prostate. The TGI in the experiment on SF-295 CNS, with SF-539 CNS, in the experiment on SN12C renal and in the experiment on SNB-75 CNS was > 100 µM throughout.
For the compound `C[C@@H]1COCCN1c1cc(C2([S@@](C)(=N)=O)CC2)nc(-c2ccnc3[nH]ccc23)n1`, the GI50 with CCRF-CEM leukemia is 2550 nM; in the experiment on HL-60(TB) leukemia it was 3.87 µM; in the experiment on HS 578T breast, 3.73 µM; in the experiment with HT29 colon it was 6.41 µM; in the experiment on OVCAR-8 ovarian it was 10.9 µM; with PC-3 prostate, 10.3 µM. Moreover, the GI50 in the experiment with SF-295 CNS is 3.35 µM; in the experiment on SF-539 CNS, 2320 nM; in the experiment with SN12C renal it was 6.02 µM; in the experiment with SNB-75 CNS, 2300 nM. For the same compound, the TGI in the experiment with CCRF-CEM leukemia was > 42.5 µM; with HL-60(TB) leukemia it was 41.5 µM; in the experiment with HS 578T breast it was 34.9 µM; in the experiment on HT29 colon, > 100 µM; with OVCAR-8 ovarian it was > 100 µM; in the experiment on PC-3 prostate it was > 100 µM. Besides, the TGI was 32.5 µM in the experiment with SF-295 CNS, 10.6 µM in the experiment with SF-539 CNS, > 100 µM with SN12C renal and 28.6 µM in the experiment on SNB-75 CNS.
On to `CC(=O)OC1CC[C@@]2(C)C(CC[C@]3(C)C2CC=C2[C@@H]4C(C)[C@H](C)CCC4(C)CCC23C)[C@@]1(C)C(=O)O` (some centres not stated), for which the TGI is 66.3 µM in the experiment on CCRF-CEM leukemia; 63.5 µM in the experiment on HL-60(TB) leukemia; 64.9 µM in the experiment on HS 578T breast; 47.4 µM with HT29 colon; 70 µM with OVCAR-8 ovarian; 31.8 µM with PC-3 prostate. In addition, the TGI came to 35.5 µM in the experiment on SF-295 CNS, 51.8 µM in the experiment on SF-539 CNS, 53.2 µM in the experiment with SN12C renal and 35.8 µM in the experiment on SNB-75 CNS.
